The record followed here is ChEMBL document CHEMBL1149375, “Design and synthesis of dipeptidyl glutaminyl fluoromethyl ketones as potent severe acute respiratory syndrome coronovirus (SARS-CoV) inhibitors” (J Med Chem, 2006).

The test system of assay [1] is SARS-CoV. Description: Inhibitory activity against SARS coronavirus FFMI replication in Caco-2 cells. Conditions: Severe acute respiratory syndrome-related coronavirus. The format is functional, organism-based.
Assay [2] relates to SARS-CoV. Kind of assay: Inhibitory activity against SARS coronavirus 6109 replication in vero (CCL81) cells. Conditions: Severe acute respiratory syndrome-related coronavirus. The format is functional, organism-based.
Assay [3] has as its system SARS-CoV. Kind of assay: Inhibitory activity against SARS coronavirus FFMI replication in vero (CCL81) cells. The format is functional, organism-based. Conditions: Severe acute respiratory syndrome-related coronavirus.
For assay [4], the system named is Vero. Kind of assay: Cytotoxicity against Vero (CCL81) cells. To be noted: Chlorocebus sabaeus. The assay is classed as functional.
Assay [5] relates to Vero. Kind of assay: Selectivity index (CC50/EC50) in SARS coronavirus 6109 infected Vero cells. The assay is classed as functional, Chlorocebus sabaeus.
The test system of the next assay is rhinovirus A2. Description: Antiviral activity against Human rhinovirus 2 in a cell based assay. The format is functional, organism-based.

Square brackets hold non-standard residues; d marks the D form. Peptide text beside a SMILES is read from it. * marks the point of attachment. ξ: configuration not given here. Ile(3ξ) = CCC(C)[C@H](N)C(=O)O; ξE = NC(CCC(=O)O)C(=O)O; Cbz = O=C(OCc1ccccc1)*; CH2F = FC*

Regarding `CC(C)[C@H](NC(=O)OCc1ccccc1)C(=O)NC(CC(=O)O)C(=O)CF` (stereo not given in full), the EC50 in the assay on SARS-CoV [1], with SARS-CoV [2] and in the assay with SARS-CoV [3] was more than 100 µM throughout. In the assay on Vero [4], the CC50 (in general, the concentration at which the toxic effect on the cells reaches its halfway point) was more than 100 µM.
Consider `C[C@H](NC(=O)OCc1ccccc1)C(=O)NC(CCC(=O)N(C)C)C(=O)CF` (stereo partly drawn) (Cbz-Ala-[ξE](NMe2)-CH2F), for which the EC50 in the assay with SARS-CoV [1], in the assay with SARS-CoV [2] and with SARS-CoV [3] was more than 100 µM each time. In the assay with Vero [4], this compound gave a CC50 of more than 100 µM.
As for `CN(C)C(=O)CCC(NC(=O)CNC(=O)OCc1ccccc1)C(=O)CF` (stereo not drawn) (Cbz-Gly-[ξE](NMe2)-CH2F), the EC50 in the assay with SARS-CoV [1], in the assay on SARS-CoV [2] and with SARS-CoV [3] was more than 100 µM in each case. In the assay on Vero [4], this compound registered a CC50 of more than 100 µM.
`CC(C)C[C@H](NC(=O)OCc1ccccc1)C(=O)NC(CCC(=O)N(C)C)C(=O)CF` (stereo partly drawn) (Cbz-Leu-[ξE](NMe2)-CH2F): the Selectivity index in the assay with Vero [5] was more than 40. In addition, the EC50 (usually the midpoint of the concentration-response curve) is 2.4 µM in the assay on SARS-CoV [1], more than 100 µg/mL in the assay on rhinovirus A2, 2.5 µM in the assay on SARS-CoV [2] and 3.6 µM in the assay on SARS-CoV [3]. In addition, in the assay on Vero [4], the CC50 is more than 100 µM.
Compound `CC(C)[C@H](NC(=O)OCc1ccccc1)C(=O)NC(CCC(=O)N(C)C)C(=O)CF` (stereo partly drawn) (Cbz-Val-[ξE](NMe2)-CH2F) gave a Selectivity index in the assay on Vero [5] of more than 15. For the same compound, the EC50 in the assay on SARS-CoV [1] was 12.6 µM; in the assay on rhinovirus A2, more than 100 µg/mL; with SARS-CoV [2], 6.6 µM; in the assay on SARS-CoV [3] it was 6.2 µM. Also, in the assay on Vero [4], the CC50 is more than 100 µM.
Regarding `CCC(C)[C@H](NC(=O)OCc1ccccc1)C(=O)NC(CCC(=O)N(C)C)C(=O)CF` (stereo not given in full) (Cbz-[Ile(3ξ)]-[ξE](NMe2)-CH2F), the Selectivity index in the assay with Vero [5] is reported as more than 18. The EC50 in the assay on SARS-CoV [1] is 8.8 µM; in the assay on rhinovirus A2 it was more than 100 µg/mL; in the assay with SARS-CoV [2], 5.3 µM; with SARS-CoV [3], 8.9 µM. Also, the CC50 in the assay with Vero [4] was more than 100 µM.
